Measurements reported in PMC8712285, “Thermococcus sp. KS-1 PPIase as a fusion partner improving soluble production of aromatic amino acid decarboxylase” (AMB Express, 2021).

Experiments:
NusA-AADC = target: T1, NusA-AADC (Pseudomonas putida, UniProt Q88JU5); experiment: HPLC of dopamine formation, cell-free extract; assay type: biochemical; settings: 1 mM L-dopa, 50 uM PLP, 2 mM 2-ME, 50 mM potassium phosphate pH 8.0, 30 °C
T1 construct: gene PP_2552; E. coli BL21(DE3)

PPIase KS-1-AADC [1] = target: T2, PPIase KS-1-AADC (Pseudomonas putida, UniProt Q88JU5); experiment: HPLC of dopamine formation, cell-free extract; assay type: biochemical; settings: 1 mM L-dopa, 50 uM PLP, 2 mM 2-ME, 50 mM potassium phosphate pH 8.0, 30 °C
T2 construct: gene PP_2552; AADC with N-terminal solubility partner Thermococcus sp; not cut; E. coli BL21(DE3)

[2] = target: T3, AADC (aromatic amino acid decarboxylase) (Pseudomonas putida, UniProt Q88JU5); experiment: HPLC of dopamine formation, cell-free extract; assay type: biochemical; settings: 1 mM L-dopa, 50 uM PLP, 2 mM 2-ME, 50 mM potassium phosphate pH 8.0, 30 °C
T3 construct: gene PP_2552; full-length, untagged, from pET-3a (pAADC) in E. coli BL21(DE3)

PPIase KS-1-AADC [3] = target: T2, PPIase KS-1-AADC; experiment: HPLC (AccQ-tag) of phenylethylamine produced by recombinant E. coli cells; assay type: cell-based; settings: 1 mM L-phenylalanine, M9 minimal medium, 25 °C, whole cells

T2 sequence (Q88JU5 entry or part of it): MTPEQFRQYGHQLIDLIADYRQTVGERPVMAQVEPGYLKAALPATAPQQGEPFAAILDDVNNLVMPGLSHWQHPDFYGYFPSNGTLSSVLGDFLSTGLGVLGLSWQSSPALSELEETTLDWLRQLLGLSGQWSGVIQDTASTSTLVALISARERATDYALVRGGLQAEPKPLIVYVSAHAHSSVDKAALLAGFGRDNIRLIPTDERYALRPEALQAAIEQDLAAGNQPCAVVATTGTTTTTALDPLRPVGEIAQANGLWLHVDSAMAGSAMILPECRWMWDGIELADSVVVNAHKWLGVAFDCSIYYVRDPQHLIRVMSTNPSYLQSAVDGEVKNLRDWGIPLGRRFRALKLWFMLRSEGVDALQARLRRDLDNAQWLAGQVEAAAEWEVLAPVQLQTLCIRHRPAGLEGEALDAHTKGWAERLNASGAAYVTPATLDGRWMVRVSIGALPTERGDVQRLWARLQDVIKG
T3 sequence (Q88JU5 entry or part of it): as above
T1 sequence (Q88JU5 entry or part of it): as above

SMILES | HPLC of dopamine formation, cell-free extract (NusA-AADC) | HPLC of dopamine formation, cell-free extract (PPIase KS-1-AADC [1]) | HPLC of dopamine formation, cell-free extract [2] | HPLC (AccQ-tag) of phenylethylamine produced by recombinant E. coli cells (PPIase KS-1-AADC [3])
N[C@@H](Cc1ccc(O)c(O)c1)C(=O)O [L-dopa] | the AADC activity toward L-dopa was significantly higher in PPIase KS−1-AADC as compared to NusA-AADC | the AADC activity toward L-dopa was significantly higher in PPIase KS−1-AADC as compared to NusA-AADC | The AADC activity was measured using these cell-free extracts | –
N[C@@H](Cc1ccccc1)C(=O)O [L-phenylalanine] | – | – | – | Phenylethylamine accumulation was also higher in PPIase KS−1-AADC-producing strain
